Columns and labels:
[1] = molecular target: T1, transcobalamin 2 (TCN2) (Rattus norvegicus, UniProt Q9R0D6); experiment: Competition against binding of TCN2 to contrast medium-immobilized beads, Western blotting; details: 25 ng/µL TCN2 + test substance; contrast medium beads (iomeprol, ioversol, iodixanol, iopromide, iohexol) at 10 mM feed; FIG. 6 to FIG. 10
T1 construct: purchased LifeSpan BioSciences, Inc
T1 sequence (Q9R0D6 19-427): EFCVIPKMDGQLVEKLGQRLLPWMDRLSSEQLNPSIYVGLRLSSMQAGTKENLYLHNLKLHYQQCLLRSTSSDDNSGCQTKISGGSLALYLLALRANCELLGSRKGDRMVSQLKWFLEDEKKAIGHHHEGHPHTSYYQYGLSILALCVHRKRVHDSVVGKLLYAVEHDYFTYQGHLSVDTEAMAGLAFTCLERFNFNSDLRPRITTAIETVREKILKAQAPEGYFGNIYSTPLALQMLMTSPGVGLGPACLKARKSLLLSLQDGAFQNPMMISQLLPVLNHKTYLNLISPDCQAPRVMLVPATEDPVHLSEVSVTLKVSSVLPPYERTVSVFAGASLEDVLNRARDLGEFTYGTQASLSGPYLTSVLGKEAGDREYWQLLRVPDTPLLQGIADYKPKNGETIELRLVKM
Text: Iodinated contrast media used were the bulk of iomeprol, the bulk of ioversol, the bulk of iodixanol, the bulk of iopromide, and the bulk of iohexol. Evaluations were made using these solid-phased beads.
For test chemicals for competing with the binding, vitamin B12 (cyanocobalamin, methylcobalamin, or hydroxocobalamin), cilastatin, and iomeprol (iodinated contrast medium) were used. Cilastatin and iomeprol are positive controls of inhibition.
The solution/beads combinations adopted were as mentioned below. • Solution a) + contrast medium-immobilized beads prepared at 0 mM contrast medium feed concentration (control) • Solution a) + contrast medium-immobilized beads prepared at 10 mM contrast medium feed concentration (no competition) • Solution b) + contrast medium-immobilized beads prepared at 10 mM contrast medium feed concentration (competition with vitamin B12, iomeprol, or cilastatin)

[2] = tested on: C57BL/6J mice; experiment: Contrast-induced renal injury model (left nephrectomy, ischemia-reperfusion, then iomeprol); details: 200 µL iomeprol + 100 µL of 1 mg/mL cyanocobalamin, vs iomeprol + normal saline
Experimental: Left kidneys were extracted from the C57BL/6J mice, and 14 days later, right kidney pedicles were ligated for 30 minutes. Thereafter, reperfusion was carried out. After 24 hours from the start of reperfusion, the C57BL/6J mice were divided into the following groups and administered with the following agents from the tail vein. • a) Contrast medium + vitamin B12-treated group: 200 µL of iomeprol + 100 µL of 1 mg/mL of cyanocobalamin solution • b) Contrast medium + normal saline-treated group (control): 200 µL of iomeprol + 100 µL of normal saline
For each of the groups, 24 hours before anatomizing, urine samples were collected using a metabolic cage, the mice were anatomized after 48 hours from the medication, then urinary kidney injury molecule-1 (KIM-1) was measured. Urinary KIM-1 measurements were conducted by Oriental Yeast Co., Ltd.
Further, right kidneys were extracted and histologically evaluated by immunostaining with KIM-1. To be specific, 3 mm-thick sections containing a kidney pedicle portion were prepared from the right kidneys, fixed with 4% paraformaldehyde phosphate buffer, sliced at a thickness of 4 µm using a microtome (REM-710; Yamato Kohki Industrial Co., Ltd.), and the obtained thin slices were immunostained with the renal injury marker KIM-1. The immunostaining was performed using VECTASTAIN Elite ABC Kit (Vector Laboratories, Inc.). […]

[3] = tested on: renal proximal tubular epithelial cells; experiment: Internalization of iodinated contrast medium into kidney cortex, iodine/nitrogen ratio by EPMA; type: in vivo, C57BL/6J mice; details: 100 µL iomeprol + 100 µL of 1 mg/mL cyanocobalamin, tail vein; kidneys 3 hours later; vs iomeprol + normal saline control; t-test; FIG. 1
Experimental: The prepared sections were analyzed by EPMA (EPMA1610; Shimadzu Ltd, Kyoto, Japan) by following the procedure described below to examine whether there is a difference in the internalization of a contrast medium between the contrast medium + vitamin B12-treated group and the contrast medium + normal saline-treated group.
EPMA is an electron microprobe (EMP) instrument that analyzes the constituent elements of a substance of interest by irradiating electron beams onto the substance and measuring the wavelengths and intensities of characteristic X-rays unique to the different elements, which are generated by the electron beams. The iodine content in sections can be determined by EMP analysis (Norby, et al., Scanning Microsc, 1990, vol.4, p.651-666). […] The behaviors of iodinated contrast media per se can be verified by analyzing iodine content distribution.
The “thin-film quantification” technique can be applied for analysis of biological samples such as kidney tissue sections. […]
Therefore, by calculating a ratio of characteristic X-ray intensity between iodine (I) and nitrogen (N) (I/N) in a specified area of biological samples, iodine (I) in different samples can be relatively quantified and compared.
Based on this principle, the sections obtained by the above experiment were analyzed by EPMA, and iodine in a specified area was relatively quantified and compared among the samples. […]

[4] = molecular target: T1, transcobalamin 2 (TCN2); experiment: Binding of TCN2 to iomeprol-immobilized magnetic beads, Western blotting with anti-TCN2 antibody; details: feed concentrations 0, 3 and 10 mM, 25 ng/µL TCN2, 4° C., 4 hours, FIG. 5
Experimental: The bulk of iodinated contrast medium was dissolved, just before use, in a solvent in which glycidylmethacrylate-coated magnetic beads (FG beads®, particle size: 0.2 µm, produced by Tamagawa Seiki Co., Ltd.) were dispersed, to initiate chemical bonding between […] present on the surface of the magnetic beads and hydroxyl groups in the contrast medium, whereby contrast medium-immobilized magnetic beads were prepared.
The iodinated contrast medium used was the bulk of iomeprol. At feed concentrations of 0 mM, 3 mM and 10 mM, the iodinated contrast medium was immobilized by chemical bonding. The preparation of the iomeprol-immobilized beads was conducted by Tamagawa Seiki Co., Ltd. […]
The TCN2-containing samples were subjected to SDS-polyacrylamide electrophoresis under reducing conditions using 4-15% gradient gels (produced by Bio-Rad Laboratories), and the developed samples were transferred onto polyvinylidene fluoride (PVDF) membranes. […] Then, bands were detected using chemiluminescent substrate for western blotting (SuperSignal™ West Femto Maximum Sensitivity Substrate; Thermo Scientific™).

[5] = molecular target: megalin (Mus musculus, UniProt A2ARV4); details: described in PTL 1; cited from earlier work
Sequence of megalin (Mus musculus, UniProt A2ARV4) (A2ARV4 26-4660): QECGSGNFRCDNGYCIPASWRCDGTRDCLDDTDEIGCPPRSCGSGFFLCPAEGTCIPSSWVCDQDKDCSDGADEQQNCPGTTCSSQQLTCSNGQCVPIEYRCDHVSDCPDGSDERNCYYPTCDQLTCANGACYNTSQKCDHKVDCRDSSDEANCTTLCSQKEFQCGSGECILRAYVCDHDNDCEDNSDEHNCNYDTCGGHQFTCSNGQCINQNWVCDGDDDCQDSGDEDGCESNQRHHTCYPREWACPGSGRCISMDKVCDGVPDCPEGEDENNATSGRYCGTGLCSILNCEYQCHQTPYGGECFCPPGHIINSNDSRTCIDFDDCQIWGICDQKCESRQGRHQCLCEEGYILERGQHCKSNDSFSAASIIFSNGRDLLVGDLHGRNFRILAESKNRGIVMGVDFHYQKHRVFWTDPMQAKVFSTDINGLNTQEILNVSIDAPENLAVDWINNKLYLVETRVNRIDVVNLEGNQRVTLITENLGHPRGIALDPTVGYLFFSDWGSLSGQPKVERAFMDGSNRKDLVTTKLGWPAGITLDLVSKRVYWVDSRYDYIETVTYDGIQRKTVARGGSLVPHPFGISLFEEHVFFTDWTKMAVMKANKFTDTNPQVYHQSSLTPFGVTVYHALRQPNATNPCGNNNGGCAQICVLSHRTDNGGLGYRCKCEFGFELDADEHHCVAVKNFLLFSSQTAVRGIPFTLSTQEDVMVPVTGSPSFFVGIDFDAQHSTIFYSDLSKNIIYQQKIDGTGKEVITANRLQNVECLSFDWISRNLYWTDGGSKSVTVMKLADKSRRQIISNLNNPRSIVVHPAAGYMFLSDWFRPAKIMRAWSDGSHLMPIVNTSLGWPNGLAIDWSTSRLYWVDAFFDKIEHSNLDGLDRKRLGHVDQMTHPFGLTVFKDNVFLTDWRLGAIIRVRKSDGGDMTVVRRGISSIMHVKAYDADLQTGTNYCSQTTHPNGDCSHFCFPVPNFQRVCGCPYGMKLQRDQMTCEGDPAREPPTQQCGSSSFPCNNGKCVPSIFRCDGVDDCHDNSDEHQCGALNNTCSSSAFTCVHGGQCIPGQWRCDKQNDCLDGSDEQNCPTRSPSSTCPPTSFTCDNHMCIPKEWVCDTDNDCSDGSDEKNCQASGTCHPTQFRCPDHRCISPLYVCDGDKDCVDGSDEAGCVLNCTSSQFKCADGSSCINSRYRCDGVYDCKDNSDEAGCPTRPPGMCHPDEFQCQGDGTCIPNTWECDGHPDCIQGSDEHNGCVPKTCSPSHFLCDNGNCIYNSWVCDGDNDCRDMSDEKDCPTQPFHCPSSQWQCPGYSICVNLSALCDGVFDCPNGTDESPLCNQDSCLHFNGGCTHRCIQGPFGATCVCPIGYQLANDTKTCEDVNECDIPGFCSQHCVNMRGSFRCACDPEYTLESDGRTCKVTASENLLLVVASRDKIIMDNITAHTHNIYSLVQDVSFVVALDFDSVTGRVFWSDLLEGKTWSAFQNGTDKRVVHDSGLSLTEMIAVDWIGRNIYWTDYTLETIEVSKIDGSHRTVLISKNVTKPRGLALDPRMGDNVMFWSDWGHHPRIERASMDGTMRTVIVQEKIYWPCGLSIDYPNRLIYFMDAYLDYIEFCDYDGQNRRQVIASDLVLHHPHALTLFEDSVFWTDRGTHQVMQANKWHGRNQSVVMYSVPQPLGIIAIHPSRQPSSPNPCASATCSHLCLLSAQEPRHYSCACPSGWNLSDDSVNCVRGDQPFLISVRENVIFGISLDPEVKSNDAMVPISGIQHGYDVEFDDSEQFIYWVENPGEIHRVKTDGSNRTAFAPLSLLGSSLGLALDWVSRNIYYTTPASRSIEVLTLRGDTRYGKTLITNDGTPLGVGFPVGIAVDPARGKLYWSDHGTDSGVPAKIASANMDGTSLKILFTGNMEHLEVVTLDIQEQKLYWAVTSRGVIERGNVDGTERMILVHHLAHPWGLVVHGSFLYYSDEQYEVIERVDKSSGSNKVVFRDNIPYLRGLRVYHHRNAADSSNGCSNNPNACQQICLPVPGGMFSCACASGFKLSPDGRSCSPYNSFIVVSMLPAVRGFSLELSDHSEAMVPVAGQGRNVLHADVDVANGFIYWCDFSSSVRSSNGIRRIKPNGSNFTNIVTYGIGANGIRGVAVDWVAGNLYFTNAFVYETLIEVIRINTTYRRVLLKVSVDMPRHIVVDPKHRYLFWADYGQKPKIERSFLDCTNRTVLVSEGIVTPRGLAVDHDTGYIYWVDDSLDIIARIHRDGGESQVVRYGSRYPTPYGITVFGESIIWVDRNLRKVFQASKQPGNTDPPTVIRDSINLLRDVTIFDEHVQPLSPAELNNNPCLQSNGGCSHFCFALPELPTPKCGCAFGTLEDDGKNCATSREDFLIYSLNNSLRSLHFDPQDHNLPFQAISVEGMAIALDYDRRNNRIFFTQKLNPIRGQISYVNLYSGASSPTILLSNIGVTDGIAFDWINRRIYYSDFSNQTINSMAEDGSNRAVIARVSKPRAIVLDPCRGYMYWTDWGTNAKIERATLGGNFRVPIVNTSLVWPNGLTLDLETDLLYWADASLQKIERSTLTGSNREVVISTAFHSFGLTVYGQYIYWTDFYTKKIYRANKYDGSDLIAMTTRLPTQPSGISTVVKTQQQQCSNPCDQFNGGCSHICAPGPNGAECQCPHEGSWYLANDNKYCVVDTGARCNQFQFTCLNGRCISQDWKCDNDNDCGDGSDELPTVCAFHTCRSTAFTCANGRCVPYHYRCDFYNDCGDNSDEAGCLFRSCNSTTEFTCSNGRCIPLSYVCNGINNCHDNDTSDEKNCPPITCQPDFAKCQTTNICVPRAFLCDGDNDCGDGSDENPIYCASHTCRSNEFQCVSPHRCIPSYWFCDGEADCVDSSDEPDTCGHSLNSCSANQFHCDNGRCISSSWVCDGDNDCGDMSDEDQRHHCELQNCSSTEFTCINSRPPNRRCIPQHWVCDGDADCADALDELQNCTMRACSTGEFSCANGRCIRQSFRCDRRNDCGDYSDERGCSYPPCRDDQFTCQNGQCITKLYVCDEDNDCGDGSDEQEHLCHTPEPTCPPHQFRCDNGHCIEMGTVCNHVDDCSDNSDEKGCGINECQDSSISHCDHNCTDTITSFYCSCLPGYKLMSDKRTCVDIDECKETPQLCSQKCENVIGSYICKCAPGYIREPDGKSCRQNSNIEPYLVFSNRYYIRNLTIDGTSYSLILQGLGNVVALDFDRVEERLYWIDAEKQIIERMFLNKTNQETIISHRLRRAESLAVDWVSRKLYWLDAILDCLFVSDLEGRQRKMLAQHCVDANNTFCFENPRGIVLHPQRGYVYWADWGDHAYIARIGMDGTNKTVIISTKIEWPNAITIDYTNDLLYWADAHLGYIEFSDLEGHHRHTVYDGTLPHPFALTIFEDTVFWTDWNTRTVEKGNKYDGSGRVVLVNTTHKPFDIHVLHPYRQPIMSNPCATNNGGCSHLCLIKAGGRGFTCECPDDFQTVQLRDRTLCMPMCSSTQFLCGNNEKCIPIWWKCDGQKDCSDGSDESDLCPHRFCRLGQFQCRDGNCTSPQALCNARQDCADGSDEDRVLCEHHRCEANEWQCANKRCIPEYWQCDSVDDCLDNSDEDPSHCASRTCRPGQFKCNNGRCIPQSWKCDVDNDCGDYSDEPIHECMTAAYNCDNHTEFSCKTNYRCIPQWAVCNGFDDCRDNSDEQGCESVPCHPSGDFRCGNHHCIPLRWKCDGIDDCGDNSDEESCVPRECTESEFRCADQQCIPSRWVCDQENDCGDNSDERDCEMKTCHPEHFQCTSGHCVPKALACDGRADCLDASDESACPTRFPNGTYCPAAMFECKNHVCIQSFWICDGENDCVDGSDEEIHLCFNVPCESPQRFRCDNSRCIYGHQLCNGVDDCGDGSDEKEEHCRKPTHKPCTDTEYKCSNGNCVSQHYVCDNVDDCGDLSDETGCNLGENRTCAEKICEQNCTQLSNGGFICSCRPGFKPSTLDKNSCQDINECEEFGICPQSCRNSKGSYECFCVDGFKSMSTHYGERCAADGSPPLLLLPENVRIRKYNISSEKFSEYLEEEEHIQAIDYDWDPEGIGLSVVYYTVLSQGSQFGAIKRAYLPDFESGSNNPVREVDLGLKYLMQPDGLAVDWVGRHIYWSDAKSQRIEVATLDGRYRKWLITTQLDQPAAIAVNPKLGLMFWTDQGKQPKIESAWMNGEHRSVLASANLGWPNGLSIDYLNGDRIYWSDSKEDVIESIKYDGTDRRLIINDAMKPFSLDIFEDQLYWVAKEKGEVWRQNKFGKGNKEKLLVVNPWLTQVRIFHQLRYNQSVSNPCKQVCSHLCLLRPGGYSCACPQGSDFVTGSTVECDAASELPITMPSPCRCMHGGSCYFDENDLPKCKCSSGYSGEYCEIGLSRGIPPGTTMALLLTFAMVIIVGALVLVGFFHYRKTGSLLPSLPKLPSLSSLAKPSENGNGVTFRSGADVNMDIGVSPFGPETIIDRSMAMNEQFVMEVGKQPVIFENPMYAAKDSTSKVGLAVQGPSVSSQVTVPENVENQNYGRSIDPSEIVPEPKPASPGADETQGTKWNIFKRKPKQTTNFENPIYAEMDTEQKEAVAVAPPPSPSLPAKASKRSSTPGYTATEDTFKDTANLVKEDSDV

[6] = molecular target: T2, megalin (Rattus norvegicus, UniProt P98158); experiment: Quartz crystal microbalance (QCM) binding of transcobalamin 2 to immobilized megalin; parameters: species or system Sprague-Dawley (SD) rat; details: 1.5 µg recombinant rat transcobalamin 2 injected on megalin-immobilized quartz crystals; BSA control decreased only 20 to 30 Hz; FIG. 4
T2 construct: megalin purified from Sprague-Dawley (SD) rat kidneys; from tissue; host or cells: Sprague-Dawley rat kidneys (megalin purified by the method of Orlando et al.); TCN2 purchased from LifeSpan BioSciences
Experimental: According to the method of Orlando, et al., megalin purified from Sprague-Dawley (SD) rat kidneys was immobilized on quartz crystals. To be specific, with the use of an immobilization kit for AFFINIX® (Initium Inc.) according to the recommended protocol for the kit, a megalin solution was prepared in Buffer A as provided with the kit to a concentration of 62.5 µg/mL, and placed and immobilized on the quartz crystals mounted in a holder.
After the megalin-immobilized quartz crystals were mounted in the measurement instrument AFFINIX® Q8 (Initium Inc.) and the frequency was confirmed to be stable, recombinant rat transcobalamin 2 proteins (TCN2 LifeSpan Bio Sciences, Inc.) (1.5 µg) were injected (in total injection volume) to measure frequency over time. More specifically, after the megalin-immobilized quartz crystals were immersed in 200 µL of buffer and the frequency was confirmed to be stable, transcobalamin 2 was injected and frequency was measured. The same measurement was done on quartz crystals, as a control, on which the same amount of bovine serum albumin (BSA) was immobilized instead of megalin, and the specific binding ability of transcobalamin 2 to megalin was analyzed.

Q: What does the source list for cyanocobalamin?
A: TCN2 bands by competition with test substance [1]: concentration-dependent decrease in TCN2 bands; expression of KIM-1 in outer cortex (immunostaining) ([2]; tail vein, 48 hours after medication, FIG. 2): expression of KIM-1 was decreased; PAS staining, vacuoles degeneration (injury finding) in kidney cortex ([2]; FIG. 3): did not have such an injury finding; I/N X-ray ratio (iodine/nitrogen) in kidney cortex areas [3]: significantly (t-test) lower

Q: With `CN(C(=O)CO)c1c(I)c(C(=O)NCC(O)CO)c(I)c(C(=O)NCC(O)CO)c1I` (stereo not drawn) [iomeprol] as the molecule, how does the “TCN2 bands by competition with test substance” value (“TCN2 bands by competition” for short) [1] read?
A: concentration-dependent decrease in TCN2 bands

Q: What about the “intensity of TCN2 band from heat-eluted samples” value [4] of the same molecule?
A: intensity of the band corresponding to TCN2 from heat-eluted samples was increased

Q: What does the source list for `CC1(C)C[C@@H]1C(=O)N/C(=C\CCCCSC[C@H](N)C(=O)O)C(=O)O` [cilastatin, (Z)-7-[[(R)-2-Amino-2-carboxyethyl]thio]-2-[[[(S)-2,2-dimethylcyclopropyl]carbonyl]amino]-2-heptenoic acid]?
A: TCN2 bands by competition with test substance [1]: concentration-dependent decrease in TCN2 bands; megalin-dependent internalization of iodinated contrast media into renal proximal tubular epithelial cells [5]: inhibits; renal injuries [5]: inhibits renal injuries

Q: Which “TCN2 bands by competition” value [1] does the source give for `C/C1=C2/[N-][C@H]([C@H](CC(N)=O)[C@@]2(C)CCC(=O)NC[C@@H](C)OP(=O)([O-])O[C@H]2[C@@H](O)[C@@H](n3cnc4cc(C)c(C)cc43)O[C@@H]2CO)[C@]2(C)N=C(/C(C)=C3N=C(/C=C4N=C1[C@@H](CCC(N)=O)C\4(C)C)[C@@H](CCC(N)=O)[C@]\3(C)CC(N)=O)[C@@H](CCC(N)=O)[C@]2(C)CC(N)=O.[Co+3].[OH-]` [hydroxocobalamin] here?
A: concentration-dependent decrease in TCN2 bands

Q: With `C/C1=C2/[N-][C@H]([C@H](CC(N)=O)[C@@]2(C)CCC(=O)NC[C@H](C)OP(=O)([O-])O[C@H]2[C@@H](O)[C@@H](n3cnc4cc(C)c(C)cc43)O[C@@H]2CO)[C@]2(C)N=C(/C(C)=C3N=C(/C=C4N=C1[C@@H](CCC(N)=O)C\4(C)C)[C@@H](CCC(N)=O)[C@]\3(C)CC(N)=O)[C@@H](CCC(N)=O)[C@]2(C)CC(N)=O.[CH3-].[Co+3]` [methylcobalamin] as the molecule, how does the “TCN2 bands by competition” value [1] read?
A: concentration-dependent decrease in TCN2 bands

B1: transcobalamin 2: Recombinant rat transcobalamin 2 protein, a transport protein for vitamin B12 (about 45 kDa) (protein, UniProt Q9R0D6 19-427, looked up)
Transcobalamin-2: T1 sequence (Q9R0D6 19-427)
Q: For B1, which “decrease of QCM frequency” value [6] is on record?
A: about 200 Hz

Source: US20230346823A1, “UTILIZATION OF VITAMIN B12 IN INHIBITING RENAL DISORDER” (Niigata University, priority 2020, published 2023)
